One series relates to MDCK cells. To be noted: dog, 48 h, 50 μM.
Series [1] has as its system influenza virus A/WSN/33(H1N1). In words: Cytopathic effect (CPE) inhibition assay, WSN virus in MDCK cells. The class given is cell-based. To be noted: for inhibition at 50 µM: MDCK, Table 9, protective rate against cytopathy, read-out: IAV inhibition rate (%); for Viral Infectivity (%): lower = better inhibition; for anti-influenza virus activity: WSN, CPE. On the technique in general: Cytopathic effects are the visible damage that an infection or toxin causes in cultured cells.

Where [2] appears, read: Table 8, 50 μM, WSN MOI=1, 48 h.
Setting [3] is: Table 6, 50 μM, WSN MOI=1, 48 h.

With `CC1(C)CC[C@]2(C(=O)O[C@H]3OC[C@H](O)C(O)C3O)C(O)C[C@]3(C)C(=CC[C@@H]4[C@@]5(C)CC[C@H](O)C(C)(C)[C@@H]5CC[C@]43C)[C@@H]2C1` (stereo partly drawn) [Compound Q4, 3β,16α-dihydroxy-olean-12-en-28-oic acid-28-O-(β-D-xyloside)], the “Cell viability(%)” value with MDCK cells is given as 0.1%.
In general, inhibition refers to the share of the control response that was lost under treatment. Turning to `CC(=O)OCC1O[C@H](NC(=O)[C@]23CCC(C)(C)CC2C2=CCC4[C@@]5(C)CCC(=O)C(C)(C)C5CC[C@@]4(C)[C@]2(C)CC3)C(OC(C)=O)C(OC(C)=O)[C@@H]1OC(C)=O` (stereo partly drawn) [Compound Y9, 3-carbonyl-olean-12-en-28-oic acid-28-N-(2,3,4,6-tetra-O-acetyl-β-D-galactoside)], in series [1] (50 μM), the inhibition at 50 µM was determined as 32.2 ± 1.81%.
In the case of `CC1(C)CC[C@]2(C(=O)N[C@H]3OC(CO)[C@H](O)C(O)C3O)CC[C@]3(C)C(=CCC4[C@@]5(C)CC[C@H](O)C(C)(C)C5CC[C@]43C)C2C1` (stereo partly drawn) [Compound Y8, 3β-hydroxy-olean-12-en-28-oic acid-28-N-(β-D-galactoside)], the “Viral Infectivity (%)” value in series [1] (setting [2]) came to 19.5%. Further, in series [1] (50 μM), the “anti-influenza virus activity” value was “significant anti-influenza virus activity”. For the same molecule, in the series with MDCK cells, the “Cell viability (%)” value came to 85.0%.
On to `CC(=O)OC1C(OC(C)=O)[C@@H](OC(C)=O)CO[C@@H]1OC(=O)[C@]12CCC(C)(C)C[C@H]1C1=CC[C@@H]3[C@@]4(C)CC[C@H](O)C(C)(C)[C@@H]4CC[C@@]3(C)[C@]1(C)CC2O` (stereo partly drawn) [Compound Q3, 3β,16α-dihydroxy-olean-12-en-28-oic acid-28-O-(2,3,4-tri-O-acetyl-β-D-xyloside)], for which, in series [1] (setting [3]), the “Viral Infectivity (%)” value is reported as 71.1%. For the same molecule, the “anti-influenza virus activity” value in series [1] (50 μM) is “some anti-influenza virus activity”. In addition, the “Cell viability(%)” value in the series with MDCK cells was 100.4%.
With “echinocystic acid [EA, reference compound]”, the “Viral Infectivity (%)” value in series [1] (Table 6, […]) was found to be 67.9%. For the same molecule, the “anti-influenza virus activity” value in series [1] (50 μM) is given as “some anti-influenza virus activity”.
Turning to `CC1(C)CC[C@]2(C(=O)O[C@H]3OC(CO)[C@H](O[C@@H]4OC(CO)[C@H](O)C(O)C4O)C(O)C3O)C(O)C[C@]3(C)C(=CC[C@@H]4[C@@]5(C)CC[C@H](O)C(C)(C)[C@@H]5CC[C@]43C)[C@@H]2C1` (stereo partly drawn) [Compound Q13, 3β,16α-dihydroxy-olean-12-en-28-oic acid-28-O-(β-D-maltoside)], in series [1] (setting [3]), the “Viral Infectivity (%)” value is listed as 115.5%. The “Cell viability(%)” value in the series with MDCK cells is 91.7%.
Take `CC1(C)CC[C@]2(C(=O)N[C@H]3OC(CO)[C@@H](O)C(O)C3O)CC[C@]3(C)C(=CCC4[C@@]5(C)CCC(=O)C(C)(C)C5CC[C@]43C)C2C1` (stereo partly drawn) [Compound Y10, 3-carbonyl-olean-12-en-28-oic acid-28-N-(β-D-galactoside)]: in series [1] (50 μM), the inhibition at 50 µM stood at 4.84 ± 3.08%.
For `CC(=O)OC1C(OC(C)=O)[C@H](OC(C)=O)CO[C@@H]1OC(=O)[C@]12CCC(C)(C)C[C@H]1C1=CC[C@@H]3[C@@]4(C)CC[C@H](O)C(C)(C)[C@@H]4CC[C@@]3(C)[C@]1(C)CC2O` (stereo partly drawn) [Compound Q5, 3β,16α-dihydroxy-olean-12-en-28-oic acid-28-O-(2,3,4-tri-O-acetyl-β-D-arabinoside)], the “Viral Infectivity (%)” value in series [1] (setting [3]) is listed as 107.5%. The “Cell viability(%)” value in the series on MDCK cells is 100.9%.
On to `CC(=O)OCC1O[C@H](OC(=O)[C@]23CCC(C)(C)C[C@H]2C2=CC[C@@H]4[C@@]5(C)CC[C@H](O)C(C)(C)C5CC[C@@]4(C)[C@]2(C)CC3O)C(OC(C)=O)C(OC(C)=O)[C@H]1OC(C)=O` (stereo partly drawn) [Compound Q1, 3β,16α-dihydroxy-olean-12-en-28-oic acid-28-O-(2,3,4,6-tetra-O-acetyl-β-D-glucoside)], for which, in series [1] (setting [3]), the “Viral Infectivity (%)” value amounted to 78.7%. Further, the “anti-influenza virus activity” value in series [1] (50 μM) is given as “some anti-influenza virus activity”. Moreover, in the series on MDCK cells, the “Cell viability(%)” value was 110.2%.
For the molecule `CC(=O)OCC1O[C@H](NC(=O)[C@]23CCC(C)(C)CC2C2=CCC4[C@@]5(C)CC[C@H](O)C(C)(C)C5CC[C@@]4(C)[C@]2(C)C[C@H]3O)C(OC(C)=O)C(OC(C)=O)[C@@H]1OC(C)=O` (stereo partly drawn) [Compound Y1, 3β,16α-dihydroxy-olean-12-en-28-oic acid-28-N-(2,3,4,6-tetra-O-acetyl-β-D-galactoside)], the “Viral Infectivity (%)” value in series [1] (setting [2]) is 16.4%. The “anti-influenza virus activity” value in series [1] (50 μM) was “significant anti-influenza virus activity”. Moreover, the “Cell viability (%)” value in the series with MDCK cells is recorded as 84.8%.
As for `CC1(C)CC[C@]2(C(=O)O[C@H]3OC(CO)[C@H](O[C@H]4OC(CO)[C@H](O)C(O)C4O)C(O)C3O)C(O)C[C@]3(C)C(=CC[C@@H]4[C@@]5(C)CC[C@H](O)C(C)(C)[C@@H]5CC[C@]43C)[C@@H]2C1` (stereo partly drawn) [Compound Q14, 3β,16α-dihydroxy-olean-12-en-28-oic acid-28-O-(β-D-cellobioside)], the “Viral Infectivity (%)” value in series [1] (setting [3]) worked out at 154.4%. The “Cell viability(%)” value in the series with MDCK cells is listed as 98.3%.
On to `CC(=O)OCC1O[C@H](NC(=O)[C@]23CCC(C)(C)CC2C2=CCC4[C@@]5(C)CCC(=O)C(C)(C)C5CC[C@@]4(C)[C@]2(C)CC3=O)C(OC(C)=O)C(OC(C)=O)[C@@H]1OC(C)=O` (some centres unmarked) [Compound Y3], for which, in series [1] (setting [2]), the “Viral Infectivity (%)” value was determined as 16.3%. In series [1] (50 μM), the “anti-influenza virus activity” value is “significant anti-influenza virus activity”. The “Cell viability (%)” value in the series with MDCK cells came out at 80.8%.
Regarding `CC1(C)CC[C@]2(C(=O)O[C@H]3OC(CO)[C@H](O)C(O)C3O)C(O)C[C@]3(C)C(=CC[C@@H]4[C@@]5(C)CC[C@H](O)C(C)(C)C5CC[C@]43C)[C@@H]2C1` (stereo partly drawn) [Compound Q2, 3β,16α-dihydroxy-olean-12-en-28-oic acid-28-O-(β-D-glucoside)], the “Viral Infectivity (%)” value in series [1] (setting [3]) is given as 76.2%. Moreover, in series [1] (50 μM), the “anti-influenza virus activity” value is on record as “some anti-influenza virus activity”. Moreover, the “Cell viability(%)” value in the series on MDCK cells stood at 101.1%.
In the case of `CC(=O)OCC1O[C@H](OC(=O)[C@]23CCC(C)(C)C[C@H]2C2=CC[C@@H]4[C@@]5(C)CC[C@H](O)C(C)(C)[C@@H]5CC[C@@]4(C)[C@]2(C)CC3O)C(OC(C)=O)C(OC(C)=O)[C@@H]1OC(C)=O` (stereo partly drawn) [Compound Q8, 3β,16α-dihydroxy-olean-12-en-28-oic acid-28-O-(2,3,4,6-tetra-O-acetyl-α-D-galactoside)], the “Viral Infectivity (%)” value in series [1] (setting [3]) worked out at 109.7%. For the same molecule, the “Cell viability(%)” value with MDCK cells turned out to be 102.6%.
As for `CC1(C)CC[C@]2(C(=O)O[C@H]3OC[C@@H](O)C(O)C3O)C(O)C[C@]3(C)C(=CC[C@@H]4[C@@]5(C)CC[C@H](O)C(C)(C)[C@@H]5CC[C@]43C)[C@@H]2C1` (stereo partly drawn) [Compound Q6, 3β,16α-dihydroxy-olean-12-en-28-oic acid-28-O-(β-D-arabinoside)], the “Cell viability(%)” value in the series with MDCK cells turned out to be 38.4%.
On to `C[C@@H]1CC[C@]2(C(=O)N[C@H]3OC(CO)[C@@H](O)C(O)C3O)CC[C@]3(C)C(=CCC4[C@@]5(C)CC[C@H](O)C(C)(C)C5CC[C@]43C)C2[C@H]1C` (stereo partly drawn) [Compound Y14, 3β-hydroxy-urs-12-en-28-oic acid-28-N-(β-D-galactoside)], for which, in series [1] (50 μM), the inhibition at 50 µM stood at 62.2 ± 2.96% and the “anti-influenza virus activity” value is “significant anti-influenza virus activity higher than Q9”.
With `CC(=O)OCC1O[C@H](NC(=O)[C@]23CC[C@@H](C)[C@H](C)C2C2=CCC4[C@@]5(C)CC[C@H](O)C(C)(C)C5CC[C@@]4(C)[C@]2(C)C[C@H]3O)C(OC(C)=O)C(OC(C)=O)[C@@H]1OC(C)=O` (stereo partly drawn) [Compound Y13, 3β-hydroxy-urs-12-en-28-oic acid-28-N-(2,3,4,6-tetra-O-acetyl-β-D-galactoside)], in series [1] (50 μM), the inhibition at 50 µM stood at 76.9 ± 5.53% and the “anti-influenza virus activity” value is listed as “significant anti-influenza virus activity higher than Q9”.
Turning to `CC(=O)OCC1O[C@H](NC(=O)[C@]23CC[C@@H](C)[C@H](C)C2C2=CCC4[C@@]5(C)CC[C@H](O)C(C)(C)C5CC[C@@]4(C)[C@]2(C)CC3)C(OC(C)=O)C(OC(C)=O)[C@H]1OC(C)=O` (stereo partly drawn) [Compound Y15, 3β-hydroxy-urs-12-en-28-oic acid-28-N-(2,3,4,6-tetra-O-acetyl-β-D-mannoside)], in series [1] (50 μM), the inhibition at 50 µM amounted to 39.8 ± 3.6%.
On to `CC1(C)CC[C@]2(C(=O)O[C@H]3OC(CO)[C@H](O[C@H]4OC(CO)[C@@H](O)C(O)C4O)C(O)C3O)C(O)C[C@]3(C)C(=CC[C@@H]4[C@@]5(C)CC[C@H](O)C(C)(C)[C@@H]5CC[C@]43C)[C@@H]2C1` (stereo partly drawn) [Compound Q11, 3β,16α-dihydroxy-olean-12-en-28-oic acid-28-O-(β-D-lactoside)], for which the “Viral Infectivity (%)” value in series [1] (setting [3]) was found to be 82.6%. The “anti-influenza virus activity” value in series [1] (50 μM) is on record as “some anti-influenza virus activity”. Moreover, the “Cell viability(%)” value in the series with MDCK cells came out at 92.8%.
On to `CC(=O)OCC1O[C@H](NC(=O)[C@]23CCC(C)(C)CC2C2=CCC4[C@@]5(C)CC[C@H](O)C(C)(C)C5CC[C@@]4(C)[C@]2(C)C[C@H]3O)C(OC(C)=O)C(OC(C)=O)[C@H]1OC(C)=O` (stereo partly drawn) [Compound Y11, 3β,16α-dihydroxy-olean-12-en-28-oic acid-28-N-(2,3,4,6-tetra-O-acetyl-β-D-mannoside)], for which the inhibition at 50 µM in series [1] (50 μM) came to 26.8 ± 3.46%.
With `C[C@@H]1CC[C@]2(C(=O)N[C@H]3OC(CO)[C@H](O)C(O)C3O)CC[C@]3(C)C(=CCC4[C@@]5(C)CC[C@H](O)C(C)(C)C5CC[C@]43C)C2[C@H]1C` (stereo partly drawn) [Compound Y16, 3β-hydroxy-urs-12-en-28-oic acid-28-N-(β-D-mannoside)], the inhibition at 50 µM in series [1] (50 μM) was 48.2 ± 4.22%.
Regarding `CC(=O)OCC1O[C@@H](O[C@H]2C(COC(C)=O)O[C@H](OC(=O)[C@]34CCC(C)(C)C[C@H]3C3=CC[C@@H]5[C@@]6(C)CC[C@H](O)C(C)(C)[C@@H]6CC[C@@]5(C)[C@]3(C)CC4O)C(OC(C)=O)C2OC(C)=O)C(OC(C)=O)C(OC(C)=O)[C@H]1OC(C)=O` (stereo partly drawn) [Compound Q12, 3β,16α-dihydroxy-olean-12-en-28-oic acid-28-O-(hepta-O-acetyl-β-D-maltoside)], the “Viral Infectivity (%)” value in series [1] (setting [3]) stood at 80.1%. Moreover, the “anti-influenza virus activity” value in series [1] (50 μM) was “some anti-influenza virus activity”. For the same molecule, the “Cell viability(%)” value with MDCK cells turned out to be 93.3%.
On to `CC1(C)CC[C@]2(C(=O)N[C@H]3OC(CO)[C@@H](O)C(O)C3O)C(=O)C[C@]3(C)C(=CCC4[C@@]5(C)CCC(=O)C(C)(C)C5CC[C@]43C)C2C1` (stereo partly drawn) [Compound Y4, 3,16-dione-olean-12-en-28-oic acid-28-N-(β-D-galactoside)], for which the “Viral Infectivity (%)” value in series [1] (setting [2]) was 31.1%. Further, the “Cell viability (%)” value in the series on MDCK cells turned out to be 98.5%.

For the origin of these results see patent US9920088B2, “Triterpene derivative and its anti-influenza use” (Peking University, priority 2012, dated 2018).
